Patent US20090281133A1, “Heterocyclic antiviral compounds” (Roche Palo Alto LLC, priority 2008, published 2009)

Tests used:
[1] = tested on: CCR5-mediated fusion of Hela-R5 cells with CEM-NKr-CCR5-Luc cells; test: CCR5-mediated cell-cell fusion (CCF) assay; assay type: cell-based; settings: luciferase readout, 24 hrs co-culture
Protocol: CCF assay was performed as described before (C. Ji, J. Zhang, N. Cammack and S. Sankuratri, J. Biomol. Screen. 2006 11(6):652-663). Hela-R5 cells (express gp160 from R5-tropic virus and HIV-1 Tat) were plated in 384 well white culture plates (BD Bioscience, Palo Alto, Calif.) at 7.5×10^3 cells per well in phenol red-free Dulbecco's Modified Eagle Medium (DMEM) supplemented with 10% FBS, 1× Pen-Strep, 300 μg/mL G418, 100 μg/mL hygromycin, and 1 μg/mL Doxycycline (Dox) (BD Bioscience, Palo Alto, Calif.), using Multimek (Beckman, Fullerton, Calif.) and incubated at 37° C. overnight to induce the expression of gp160. Ten μL diluted compounds in medium containing 5% DMSO were added to the cells, followed by the addition of CEM-NKr-CCR5-Luc (obtained from NIH AIDS Research & Reference Reagents Program) that expresses CD4 and CCR5 and carries a HIV-2 long terminal repeat (LTR)-driven luciferase reporter gene at 1.5×10^4 cells/15 μL/well and incubated for 24 hrs. At the end of co-culture, 15 μL of Steady-Glo luciferase substrate was added into each well, and the cultures were sealed and gently shaken for 45 min. The luciferase activity were measured for 10 sec per well as luminescence by using 16-channel TopCount NXT (PerkinElmer, Shelton, Conn.) with 10 min dark adaptation and the readout is count per second (CPS). […]

[2] = biological target: T1, Human CCR5 receptor (Homo sapiens, UniProt P51681); test: Human CCR5 receptor-ligand binding assay; settings: CHO-Gα16-hCCR5 cells, 125I RANTES binding
T1 construct: expressed in transfected cells
Description: Human CCR5 Receptor-Ligand Binding Assay Protocol
Human CCR5 receptor (Genebank ID: 29169292) was cloned into mammalian expression vector, pTarget (Promega). The construct was transfected into CHO-Gα16 cells by using Fugene Reagent (Roche). Clones were selected under antibiotic pressure (G418 and Hygromycin) and sorted 4 times with a fluorescence activates cell sorter and a monoclonal antibody specific for CCR5 receptor (BD Biosciences Pharmigen, Mab 2D7, Cat. No. 555993). The clone with highest expression (100,000 copies per cell) was chosen for the binding assays.
Adherent cells in […] tissue culture flask (˜90% confluent) were harvested using 1 mM EDTA in PBS (phosphate-buffered saline) without Ca^2+ and Mg^2+. Cells were washed twice with PBS containing no Ca^2+ and Mg^2+. CHO-Gα16-hCCR5 cells were then resuspended (1×10^6/mL) in ice cold binding buffer (50 mM HEPES, 1 mM CaCl2, 5 mM MgCl2, 0.5% BSA, 0.05% NaN3, pH 7.24), pH 7.4), supplemented with freshly made 0.5% BSA and 0.05% NaN3.
Eighty μl CHO-Gα16-hCCR5 (1×10^6/mL) cells were added to 96 well plates. All dilutions were made in binding buffer (50 mM HEPES, 1 mM CaCl2, 5 mM MgCl2, 0.5% BSA, 0.05% NaN3, pH 7.24).
The plates were incubated on a cell shaker at RT for 2 h with a final concentration of 0.1 nM ^125I RANTES or ^125I MIP-1α or ^125I MIP-1β. The compound dilutions were made in PBS, 1% BSA. Total reaction volume was 100 μl per well. The test compounds were added to the cells prior to the addition of radioligand.
After incubation, the cells were harvested onto GF/C filter plates using Packard cell harvester. Filters were pretreated with 0.3% PEI/0.2% BSA for 30 min. The filter plate was washed rapidly 5 times with 25 mM HEPES, 500 mM NaCl, 1 mM CaCl2 and 5 mM MgCl2 adjusted to pH 7.1. Plates were dried in oven (70° C.) for 20 min, added with 40 μl scintillation fluid and sealed with Packard TopSeal-A. Packard Top Count was used to measure of the radioactivity for 1 min per well.
Total binding was determined with control wells added with radioisotope and buffer and the non-specific binding was determined using an excess cold RANTES to some of the control wells. Specific binding was determined by subtracting the non-specific form total binding. Results are expressed as the percentage of specific ^125I RANTES binding. IC50 values were determined using varying concentrations of the test ligand in triplicates and the data was analyzed using GraphPad Prism (GraphPad, San Diego, Calif.).

[3] = tested on: collagen induced arthritis; settings: collagen-induced arthritis model; cited from earlier work
[4] = tested on: HIV; settings: cited from earlier work

T1 sequence (P51681 whole entry): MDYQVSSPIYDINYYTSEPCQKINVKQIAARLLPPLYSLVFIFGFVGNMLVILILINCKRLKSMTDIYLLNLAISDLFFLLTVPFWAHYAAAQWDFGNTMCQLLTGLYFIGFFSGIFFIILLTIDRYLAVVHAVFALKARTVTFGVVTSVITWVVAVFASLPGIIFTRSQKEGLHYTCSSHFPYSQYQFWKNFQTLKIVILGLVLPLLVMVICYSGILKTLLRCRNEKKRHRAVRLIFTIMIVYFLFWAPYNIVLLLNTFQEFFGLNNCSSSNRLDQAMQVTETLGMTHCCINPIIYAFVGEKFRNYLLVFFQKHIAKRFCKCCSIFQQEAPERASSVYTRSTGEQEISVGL

CCCCC1CN(C[C@H]2CC[C@H](OCC)CC2)C(=O)CC12CCN(C1(C)CCN(C(=O)c3c(C)ncnc3C)CC1)CC2 (mixture of isomers) [I-1, 5-Butyl-9-[1-(4,6-dimethyl-pyrimidine-5-carbonyl)-4-methyl-piperidin-4-yl]-3-(4-ethoxy-cyclohexylmethyl)-3,9-diaza-spiro[5.5]undecan-2-one]
IC50 [1]: < 2.5 nM
IC50 [2]: 30.4 nM

CCCCC1CN(CC2CCC(OCC)CC2)C(=O)CC12CCN(C1(C)CCN(C(=O)c3c(C)ncnc3C)CC1)CC2 (single isomer, unassigned) [I-2]
IC50 [2]: 26.8 nM

CCCCC1CN(CC2CCC(OCC)CC2)C(=O)CC12CCN(C1(C)CCN(C(=O)c3c(C)ncnc3C)CC1)CC2 (single isomer, unassigned) [I-3]
IC50 [2]: 32.9 nM

CCCCC1CN(CC2CCOCC2)C(=O)CC12CCN(C1(C)CCN(C(=O)c3c(C)ncnc3C)CC1)CC2 (centres unmarked) [I-4]
IC50 [2]: 17.2 nM
melting point: 92.8 to 100.1 °C

CCCCC1CN(C[C@H]2CC[C@H](OC)CC2)C(=O)CC12CCN(C1(C)CCN(C(=O)c3c(C)ncnc3C)CC1)CC2 (some centres unmarked) [I-5]
IC50 [2]: 20.8 nM

CCCCC1CN(CC2CCN(S(C)(=O)=O)CC2)C(=O)CC12CCN(C1(C)CCN(C(=O)c3c(C)ncnc3C)CC1)CC2 (centres unmarked) [I-6]
IC50 [2]: 16.9 nM

CCCCC1CN(CC2CCN(C(C)=O)CC2)C(=O)CC12CCN(C1(C)CCN(C(=O)c3c(C)ncnc3C)CC1)CC2 (centres unmarked) [I-7]
IC50 [2]: 51.7 nM

CCCCC1CN(CC2CCN(C(=O)OC)CC2)C(=O)CC12CCN(C1(C)CCN(C(=O)c3c(C)ncnc3C)CC1)CC2 (centres unmarked) [I-8, 4-{1-Butyl-9-[1-(4,6-dimethyl-pyrimidine-5-carbonyl)-4-methyl-piperidin-4-yl]-4-oxo-3,9-diaza-spiro[5.5]undec-3-ylmethyl}-piperidine-1-carboxylic acid methyl ester]
IC50 [2]: 24.4 nM

CCCCC1CN(C[C@H]2CC[C@@H](OCC)CC2)C(=O)CC12CCN(C1(C)CCN(C(=O)c3c(C)ncnc3C)CC1)CC2 (some centres unmarked) [I-9]
IC50 [2]: 32 nM

CCCCC1CN(C[C@@H]2CCOC2)C(=O)CC12CCN(C1(C)CCN(C(=O)c3c(C)ccnc3C)CC1)CC2 (some centres unmarked) [I-10]
IC50 [2]: 24.9 nM

CCCCC1CN(CC2CCCCO2)C(=O)CC12CCN(C1(C)CCN(C(=O)c3c(C)ncnc3C)CC1)CC2 (centres unmarked) [I-11]
IC50 [2]: 24.6 nM

CCCCC1CN(CC2CCOCC2)C(=O)CC12CCN(C1(C)CCN(C(=O)c3c(C)ccnc3C)CC1)CC2 (centres unmarked) [I-12]
IC50 [2]: 13.7 nM

CCCCC1CN(CC2CCOCC2)C(=O)CC12CCN(C1(C)CCN(C(=O)c3c(C)cc(C#N)nc3C)CC1)CC2 (centres unmarked) [I-13]
IC50 [2]: 19.7 nM

CCCCC1CN(C[C@H]2CCOC2)C(=O)CC12CCN(C1(C)CCN(C(=O)c3c(C)ccnc3C)CC1)CC2 (stereo partly drawn) [I-14, 5-Butyl-9-[1-(2,4-dimethyl-pyridine-3-carbonyl)-4-methyl-piperidin-4-yl]-3-[(R)-1-(tetrahydro-furan-3-yl)methyl]-3,9-diaza-spiro[5.5]undecan-2-one]
IC50 [2]: 17.7 nM

CCCCC1CN(CC2CCC(O)CC2)C(=O)CC12CCN(C1(C)CCN(C(=O)c3c(C)ccnc3C)CC1)CC2 (centres unmarked) [I-15, 5-Butyl-9-[1-(2,4-dimethyl-pyridine-3-carbonyl)-4-methyl-piperidin-4-yl]-3-(4-hydroxy-cyclohexylmethyl)-3,9-diaza-spiro[5.5]undecan-2-one]
IC50 [2]: 30.5 nM

Cc1ccc(-c2ccc3c(c2)C=C(C(=O)Nc2ccc(C[N+](C)(C)C4CCOCC4)cc2)CCC3)cc1.[Cl-] [TAK-779]
incidence and severity of arthritis [3]: reduce both the incidence and severity of arthritis
infiltration of inflammatory CCR5+ T-cells into the joint [3]: inhibited

B1: RANTES: CC chemokine, naturally occurring chemokine that can stimulate the CCR5 receptor (protein, UniProt P13501 24-91, looked up)
C-C motif chemokine 5: SPYSSDTTPCCFAYIARPLPRAHIKEYFYTSGKCSNPAVVFVTRKNRQVCANPEKKWVREYINSLEMS
block of HIV entry into the cells [4]: block HIV entry into the cells
